These results are taken from patent publication US20080176811A1, “NOVEL FLAVONE GLYCOSIDE DERIVATIVES FOR USE IN COSMETICS, PHARMACEUTICALS AND NUTRITION” (priority 2000, published 2008).

“Also recorded” adds a separate entry of the source. Where two headings read alike, the source gives them in different places.

One data set concerns TIMP-mRNA. Put plainly: Light-induced expression of TIMP-mRNA in skin models (Northern blot). In kind it is cell-based. To be noted: for TIMP expression: 0 ppm unexposed = 100; for percentage change in the expression of TIMP: by comparison with exposed, untreated cultures. The procedure: (§1) To this end, the quantity of mRNA was quantified for MMP1, TIMP and Colaα1. Skin models were treated with the test substances for 12 hours and then exposed to simulated sunlight corresponding to a dose of 10 J UV-A/cm^2. After another 48 hours in the presence of the active substances, the RNA of the cells was prepared and analyzed by Northern blots with specific gene probes. To monitor the quantity of RNA used in the experiments, Northern blots were carried out with an 18S-specific gene probe. To quantify the signal intensities, the autoradiograms were evaluated by densitometry and the values of the signals for MMP1, TIMP and Colα1, were related to the associated values of the 18S signals. The figures in Table 1 represent the densitometric quantification of the signals of a Northern blot after normalization thereof.

A further data set has as its system fibroblasts. Put plainly: Collagen production at protein level, fibroblasts in three-dimensional culture system. In kind it is cell-based. The following applies: 5 days, treated against untreated cultures. The procedure:
On the sixth day, the quantity of collagen formed compared with non-collagen protein was determined via the incorporation of titrated protein.

Data set [1] deals with Dermal fibroblasts of human skin. Put plainly: Phototoxicity, MTT test after simulated sunlight (10 J UV-A/cm^2). In kind it is cell-based. Here is the method: Dermal fibroblasts of human skin were cultivated with increasing concentrations of retinol (Table 1), 6-O-naringin-(p-Cl-phenylacetic acid)ester (Table 2) and 6-O-naringin-(3-phenylpropionic acid)-ester (Table 3). The phototoxicity of the substances was measured by an MTT test. To determine phototoxicity, the treated cells were exposed to simulated sunlight corresponding to a dose of 10 J UV-A/cm^2. The vitality of untreated cells was put at 100% and all other values were related to that value.
The exposure of the cells was carried out with a sunlight simulator from the emission spectrum of which the UV-A component of the radiation was measured for quantification. The advantage of this experimental design is the fact that the complete spectrum of the sunlight is used so that the everyday situation is excellently simulated. By contrast, many other research laboratories use pure UV-A and for UV-B lamps.

For a further data set, the system named is MMP-1-mRNA. Put plainly: Light-induced expression of MMP-1-mRNA in skin models (Northern blot). In kind it is cell-based. To be noted: for MMP 1 expression: 0 ppm unexposed = 100; for percentage change in the expression of MMP: by comparison with exposed, untreated cultures. The procedure:
as §1

Data set [2] deals with fungal tyrosinase (Sigma). The data set is described as follows: Inhibition of tyrosinase activity (L-DOPA to dopachromium, absorption at 475 nm). In kind it is biochemical. To be noted: for Residual tyrosinase activity in %: without active substance = 100%. The procedure: Tyrosinases physiologially catalyze an important step in the synthesis of melanin (L-dopa to L-dopaquinone which is further cyclized and re-reacted by a tyrosinase to dopachromium). Accordingly, inhibition of the tyrosinase can lead to a skin lightening effect.
The activity of fungal tyrosinase (Sigma) was determined in the presence of various concentrations of the active substances according to the invention by enzymatic reaction of LDOPA to dopachromium. The absorption maximum of dopachromium (red-brown) is at λ=475 nm. The linear increase in the absorption (A) of the dopachromium per unit of time (t) is a measure of the activity of the tyrosinase (ΔN/Δt). The activity of the tyrosinase in the absence of the active substances (ΔA1/Δt1) was used as reference (100%). Under analogous conditions, the residual tyrosinase activity was determined in the presence of the active substances (ΔA2/Δt2). Each measurement was carried out twice in parallel runs. The variation of the results of the method is ca.±10%.
50 mM KH2PO4 buffer in bidist. water (adjustment to pH 6.5 with 1 M aqueous KOH) 2.5 mM L-DOPA in bidist. water 340 U/ml tyrosinase stock solution in cold KH2PO4 buffer, pH 6.5. Stock solutions of the active substance to be tested in bidist. water or ethanol in which the concentration of the active substance was 10 times higher than indicated in the line “active substance concentration in the test system” under “results”.
Like the tyrosinase stock solution, the reaction cocktail was prepared just before the beginning of the test. The tyrosinase stock solution has to be kept in a refrigerator. The L-DOPA solutions should be stored in darkness and in tightly closed containers in the absence of oxygen. If it turns grey in color (oxidation by atmospheric oxygen), the solution must be freshly prepared.
33 μl tyrosinase stock solution 100 μl active substance stock solution reaction cocktail to 1000 μl
The activity of the tyrosinase in the absence of the active substances was used as reference (100%). All samples were thoroughly mixed in a Vibrofix before the beginning of the measurement. The pH value was monitored and if necessary was adjusted to pH 6.5. The measurement was carried out with a Kontron Uvikon 860 photometer. The absorption of the dopachromium was detected for 5 mins. at 25° C. at the absorption maximum X of 475 nm, the measuring time being 20-30 s.

A further data set deals with Colα1-mRNA. The data set is described as follows: Light-induced expression of Colα1-mRNA in skin models (Northern blot). The format is cell-based. To be noted: for Collagen expression: exposed, 0 ppm unexposed = 100; for percentage change in the expression of Colα1: by comparison with exposed, untreated cultures. The procedure: as §1

Consider `C[C@@H]1O[C@@H](O[C@H]2[C@H](Oc3cc(O)c4c(c3)O[C@H](c3ccc(O)cc3)CC4=O)O[C@H](COC(=O)CCc3ccccc3)[C@@H](O)[C@@H]2O)[C@H](O)[C@H](O)[C@H]1O` [6-O-naringin-(3-phenylpropionic acid)-ester], for which the TIMP expression in the data set with TIMP-mRNA (10 ppm, exposed) is 104%; in the data set on TIMP-mRNA (100 ppm, exposed), 134%. In addition, in the data set on TIMP-mRNA (100 ppm), the “TIMP production (in words)” value is “increased TIMP production considerably”. Further, the “increase in expression of TIMP” value in the data set on TIMP-mRNA (100 ppm, exposed) is given as “around 35%”. For the same molecule, the “percentage change in the expression of TIMP” value in the data set with TIMP-mRNA (100 ppm) is 50%. The “Increase in collagen production” value turned out to be 8% in the data set with fibroblasts (1 ppm), 8% in the data set with fibroblasts (10 ppm) and 19% with fibroblasts (100 ppm). Also, in data set [1], the “Phototoxicity (in words)” value was “only show toxic effects in relatively high concentrations”. The “MMP 1 expression” value in the data set with MMP-1-mRNA (10 ppm, exposed) is reported as 167%; with MMP-1-mRNA (100 ppm, exposed), 87%. Moreover, the “sunlight-induced expression of MMP-1 (in words)” value in the data set with MMP-1-mRNA (100 ppm) was “reduced the sunlight-induced expression of MMP-1 to the level of the unexposed, untreated sample”. The “percentage change in the expression of MMP” value in the data set with MMP-1-mRNA (100 ppm) is on record as −37%. Further, the “Residual tyrosinase activity in %” value in data set [2] (active substance 0.005% (w/v in bidist H2O)) was found to be 98.9%; in data set [2] (active substance 0.05% (w/v in bidist H2O)) it was 69.1%; in data set [2] (active substance 0.5% (w/v in bidist H2O)) it was 0.7%. For the same molecule, in data set [2] (w/v in bidist H2O), the “IC 50 (tyrosinase)” value amounted to 0.18%. The Collagen expression in the data set with Colα1-mRNA (10 ppm) is 74%; with Colα1-mRNA (100 ppm), 99%. In the data set with Colα1-mRNA (100 ppm), the “expression of Colα1 (in words)” value is “increased to the level of the unexposed, untreated culture”. In addition, the “percentage change in the expression of Colα1” value in the data set on Colα1-mRNA (100 ppm) amounted to 64%.
On to `CC1OC(OC2C(Oc3cc(O)c4c(c3)OC(c3ccc(O)cc3)CC4=O)OC(COC(=O)Cc3ccc(Cl)cc3)C(O)C2O)C(O)C(O)C1O` (stereo not shown) [6-O-naringin-(p-Cl-phenylacetic acid)-ester], for which the TIMP expression came out at 62% in the data set with TIMP-mRNA (5 ppm, exposed) and 77% in the data set on TIMP-mRNA (50 ppm, exposed). For the same molecule, the “expression of TIMP (in words)” value with TIMP-mRNA (50 ppm) is “only slightly affected; also recorded: only a slight effect”. For the same molecule, in the data set on TIMP-mRNA (50 ppm), the “percentage change in the expression of TIMP” value is on record as −15%. The “Increase in collagen production” value in the data set on fibroblasts (5 ppm) is −3%; in the data set on fibroblasts (50 ppm), 41%. For the same molecule, the “Vitality (%; in brackets: SEM)” value is given as 115 (15) % in data set [1] (5 ppm, 10 J UV-A/cm^2, untreated cells = 100%); 96 (17.2) % in data set [1] (10 ppm, 10 J UV-A/cm^2, untreated cells = 100%); 81 (8.3) % in data set [1] (50 ppm, 10 J UV-A/cm^2, untreated cells = 100%); 3 (1.7) % in data set [1] (100 ppm, 10 J UV-A/cm^2, untreated cells = 100%); 3 (1.8) % in data set [1] (500 ppm, 10 J UV-A/cm^2, untreated cells = 100%). Moreover, in data set [1] (compared with retinol, 10 J UV-A/cm^2), the “Phototoxicity (in words)” value is listed as “only show toxic effects in relatively high concentrations”. For the same molecule, the “MMP 1 expression” value was determined as 129% in the data set on MMP-1-mRNA (5 ppm, exposed (10 J UV-A/cm^2)) and 40% in the data set with MMP-1-mRNA (50 ppm, exposed). For the same molecule, in the data set with MMP-1-mRNA (50 ppm), the “sunlight-induced expression of MMP-1 (in words)” value was “very effectively reduced”. The “percentage change in the expression of MMP” value in the data set with MMP-1-mRNA (50 ppm) was −70%. Also, the results for the “Residual tyrosinase activity in %” value in data set [2] (active substance 0.01% (w/v in 98% ethanol)) and in data set [2] (active substance 0.1% (w/v in 98% ethanol)) were 45.1% and 15.4%, respectively. Besides, the figures for the Collagen expression in the data set on Colα1-mRNA (5 ppm) and in the data set on Colα1-mRNA (50 ppm) were 56% and 79%, respectively. For the same molecule, the “percentage change in the expression of Colα1” value in the data set with Colα1-mRNA (50 ppm) was 27%. Further, the “expression of Colα1 (in words)” value in the data set on Colα1-mRNA (50 ppm, in relation to the exposed, untreated sample) is on record as “distinctly increased”.
Consider `CC1=C(/C=C/C(C)=C/C=C/C(C)=C/CO)C(C)(C)CCC1` [retinol, reference compound], for which the “Phototoxicity (in words)” value in data set [1] is recorded as “toxic in very low concentrations”. The “Vitality (%; in brackets: SEM)” value in data set [1] (human, 0.0028 ppm) is recorded as 99 (7.4) %; in data set [1] (human, 0.014 ppm), 95 (19.8) %; in data set [1] (human, 0.028 ppm), 80 (25.9) %; in data set [1] (human, 0.14 ppm) it was 28 (11.8) %; in data set [1] (human, 0.28 ppm), 4 (2.1) %.
